Test results: ChEMBL document CHEMBL1127719, “Synthesis and serotonergic activity of benzofuran and dihydrogenzofuran analogues of 5-carboxamidotryptamine” (Bioorg Med Chem Lett, 1994)

Experiments:
[1] = molecular target: T1, 5-hydroxytryptamine receptor 3A (Rattus norvegicus, UniProt P35563); test: In Vitro Binding affinity againist 5-hydroxytryptamine 3 receptor by displacing [3H]-Q-ICS 205-930 from rat cortex homogenates
T1 sequence (P35563 whole entry): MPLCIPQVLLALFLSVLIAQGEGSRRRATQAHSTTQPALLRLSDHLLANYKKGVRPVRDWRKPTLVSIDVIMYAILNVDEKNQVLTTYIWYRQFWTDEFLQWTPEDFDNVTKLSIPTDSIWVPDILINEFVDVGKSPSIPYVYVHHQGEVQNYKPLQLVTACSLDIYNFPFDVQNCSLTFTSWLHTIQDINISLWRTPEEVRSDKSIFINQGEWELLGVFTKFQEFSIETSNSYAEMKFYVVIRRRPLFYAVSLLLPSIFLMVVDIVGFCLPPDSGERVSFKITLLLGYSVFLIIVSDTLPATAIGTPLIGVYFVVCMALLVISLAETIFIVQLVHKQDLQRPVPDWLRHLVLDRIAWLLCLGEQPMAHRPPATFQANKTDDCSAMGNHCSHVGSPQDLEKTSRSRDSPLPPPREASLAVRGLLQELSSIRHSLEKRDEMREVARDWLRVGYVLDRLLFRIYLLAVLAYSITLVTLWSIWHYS

[2] = species: Oryctolagus cuniculus; test: In Vitro functional activity in rabbit saphenous vein
[3] = species: Oryctolagus cuniculus; test: Relative maximum in rabbit by obtaining the maximum contraction relative to the maximum response with 1 uM 5-HT; type: functional
[4] = molecular target: 5-hydroxytryptamine receptor 2A (Rattus norvegicus, UniProt P14842); test: In Vitro Binding affinity againist 5-HT2A receptor by displacing [3H]-DOB from rat cortex homogenates
5-hydroxytryptamine receptor 2A, sequence (P14842 whole entry): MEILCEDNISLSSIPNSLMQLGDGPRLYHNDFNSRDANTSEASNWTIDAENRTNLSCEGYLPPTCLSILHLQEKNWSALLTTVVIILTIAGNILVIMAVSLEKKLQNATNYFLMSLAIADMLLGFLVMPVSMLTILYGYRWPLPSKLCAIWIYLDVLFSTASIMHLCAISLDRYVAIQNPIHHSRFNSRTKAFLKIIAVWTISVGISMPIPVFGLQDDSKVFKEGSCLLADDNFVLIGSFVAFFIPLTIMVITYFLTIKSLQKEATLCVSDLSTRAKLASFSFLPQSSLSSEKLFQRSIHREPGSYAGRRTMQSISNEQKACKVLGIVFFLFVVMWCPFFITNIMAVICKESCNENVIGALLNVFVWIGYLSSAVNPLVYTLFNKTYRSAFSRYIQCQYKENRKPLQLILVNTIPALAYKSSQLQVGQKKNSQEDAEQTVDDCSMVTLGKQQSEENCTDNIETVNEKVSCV

Structure (SMILES) | IC50 [1] [µM] | EC50 [2] [µM] | Activity [3] | IC50 [4] [µM]
NCCc1coc2ccc(C(N)=O)cc12 | 7.41 | 0.158 | 1.2 | 1.7
CN(C)CCc1coc2ccc(C(N)=O)cc12 | 3.98 |  |  | 3.39
NCCc1c[nH]c2ccc(C(N)=O)cc12 |  | 0.0282 | 1.06 | 21.9
NCCC1COc2ccc(C(N)=O)cc21 (stereo unspecified) | 4.27 |  |  | > 10
